According to ChEMBL document CHEMBL1201862, “PubChem BioAssay data set” (2004):
Calls of active or inactive are those of the source. Cut-off read from the data, not from the text of the source, for most assays here: actives have a measured EC50 and inactives only a lower limit.

test system: not listed separately; assay: Luminescence Cell-Based Dose Confirmation HTS to Identify Inhibitors of Platelet Dense Granule Release. [Related pubchem assays: 1663 (Primary HTS), 1678 (Summary of Project)]; format: functional

For `CCn1c(SCC(=O)N(C)c2c(N)n(Cc3ccccc3)c(=O)[nH]c2=O)nc2ccccc21`, which EC50 is on record?
The EC50 was > 112 µM (not active).

Which EC50 does the source give for `C=CCn1c(S)nnc1-c1cc(Cl)ccc1OC` here?
The EC50 was > 112 µM (not active).

Which EC50 does the source give for `COc1ccc(NC(=O)c2cnn(-c3ccccc3)c2C)cc1` here?
The EC50 was 6.03 µM (active).

For `COc1cc2c(cc1OC)-c1cc(Nc3cccc(C)c3)nc(=O)n1CC2`, which EC50 is on record?
Its EC50 is 4.03 µM (active).

With `COC(=O)c1ccc(NC(=O)C(=O)c2cccn2C)cc1` as the molecule, how does the EC50 read?
Its EC50 is 2.39 µM (active).

Which EC50 does the source give for `CCOC(=O)C1CCN(C(c2ccccn2)c2c(C)[nH]c3ccccc23)CC1` (configuration not stated) here?
Its EC50 is 16.5 µM (active).

With `COc1ccccc1NC(=O)c1cc2n(n1)C(C(F)(F)F)CC(c1ccc3c(c1)OCO3)N2` (configuration not stated) as the molecule, how does the EC50 read?
Its EC50 is > 112 µM (not active).

With `CCCCOC(=O)c1ccc(OC(=O)N2CCOCC2)cc1` as the molecule, how does the EC50 read?
The EC50 was > 112 µM (not active).

With `CCN1CCN(Cc2nc3c(c(=O)[nH]c(=O)n3C)n2Cc2ccccc2Cl)CC1` as the molecule, how does the EC50 read?
The EC50 was 18.6 µM (active).

Which EC50 does the source give for `CCOC(=O)c1cc2cc(OC)ccc2nc1C` here?
The EC50 was > 112 µM (not active).

With `O=C(Nc1ccc2c(c1)OCO2)Nc1ccccc1F` as the molecule, how does the EC50 read?
Its EC50 is 3.42 µM (active).

test system: not listed separately; assay: Luminescence Cell-Based Dose Response HTS to Identify Inhibitors of 5'UTR Stem-Loop Driven Prion Protein mRNA Translation in H4 Neuroglioblastoma Cells. [Related pubchem assays: 1827 (Project Summary), 1813 (Primary HTS)]; format: functional

Which EC50 does the source give for `COc1ccc(C(=O)NC(=O)Nc2cc(C)ccn2)cc1` here?
The EC50 was 0.533 µM (active).

test system: not listed separately; assay: luciferase reporter signal suppression in cells – H4 neuroglioma cells, luminescence, dose response (AID 1990); format: functional, cell-based

For `COc1ccc(C(=O)NC(=O)Nc2cc(C)ccn2)cc1`, which EC50 is on record?
The EC50 was 1.67 µM (active).

test system: not listed separately; assay: NIH3T3 cell viability loss – ATP luminescence, mouse fibroblasts, counter-screen, dose response (AID 2010); format: functional, cell-based;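 note: cells exposed to compound for about 90 hours before reading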

Which EC50 does the source give for `O=[N+]([O-])c1ccc(CN2CCN(c3ccc(Cl)cc3)CC2)o1` here?
Its EC50 is > 60 µM (not active).

test system: not listed separately; assay: blockers of HIV-1 envelope-mediated cell-cell fusion – cherry-pick, dose response (AID 652057); format: functional, cell-based

Which AC50 does the source give for `Cc1ccc(S(=O)(=O)Nc2ccc3c(c2)CC(=O)N([C@@H](C)CO)C[C@H](C)[C@@H](CN(C)Cc2ccc(-c4ccccc4)cc2)O3)cc1` here?
Its AC50 is 20.2 µM (active).

test system: not listed separately; assay: cells; format: functional

Which IC50 does the source give for `COc1cnn(C2CCCCC2)c(=O)c1O` here?
The IC50 was 33.5 µM (active).

For `O=C1NC(=O)C(=Cc2ccc(-c3ccc(Cl)cc3)o2)C(=O)N1`, which IC50 is on record?
The IC50 was > 50 µM (active).

With `O=[N+]([O-])c1ccc(CN2CCN(c3ccc(Cl)cc3)CC2)o1` as the molecule, how does the IC50 read?
Its IC50 is < 0.1 µM (active).

molecular target: T1, Microphthalmia-associated transcription factor (Homo sapiens, UniProt O75030); assay: reducers of TRPM1 reporter luminescence, concentration series – cell-based, SK-MEL-5, cherry-picked, set 3, MITF inhibitor project, dose response (AID 493073); format: functional;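 note: SK-MEL-5 melanoma cells with luciferase driven by the MITF target TRPM1 promoter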
T1 sequence (O75030 whole entry): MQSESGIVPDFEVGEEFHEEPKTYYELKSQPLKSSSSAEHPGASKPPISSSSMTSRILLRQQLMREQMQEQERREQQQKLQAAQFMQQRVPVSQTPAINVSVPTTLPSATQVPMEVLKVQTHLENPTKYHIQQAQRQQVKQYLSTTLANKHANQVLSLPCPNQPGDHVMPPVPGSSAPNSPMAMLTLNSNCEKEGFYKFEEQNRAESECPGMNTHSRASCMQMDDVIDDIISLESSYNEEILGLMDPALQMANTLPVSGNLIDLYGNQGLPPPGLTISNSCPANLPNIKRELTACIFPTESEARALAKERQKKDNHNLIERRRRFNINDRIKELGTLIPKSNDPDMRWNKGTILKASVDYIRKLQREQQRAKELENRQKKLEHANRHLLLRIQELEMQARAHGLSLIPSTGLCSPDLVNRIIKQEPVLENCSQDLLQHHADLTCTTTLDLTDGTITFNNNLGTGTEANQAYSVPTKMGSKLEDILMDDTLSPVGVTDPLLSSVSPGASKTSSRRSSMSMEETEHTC

With `COc1ccc(C(=O)NC(=O)Nc2cc(C)ccn2)cc1` as the molecule, how does the AC50 read?
Its AC50 is 4.96 µM (active).

For `O=C1NC(=O)C(=Cc2ccc(-c3ccc(Cl)cc3)o2)C(=O)N1`, which AC50 is on record?
Its AC50 is 9.2 µM (active).

molecular target: Luciferin 4-monooxygenase (Photinus pyralis, UniProt P08659); assay: inhibition of purified Photinus pyralis luciferase – biochemical, luminescence, dose response (AID 1891)
Sequence (P08659 whole entry): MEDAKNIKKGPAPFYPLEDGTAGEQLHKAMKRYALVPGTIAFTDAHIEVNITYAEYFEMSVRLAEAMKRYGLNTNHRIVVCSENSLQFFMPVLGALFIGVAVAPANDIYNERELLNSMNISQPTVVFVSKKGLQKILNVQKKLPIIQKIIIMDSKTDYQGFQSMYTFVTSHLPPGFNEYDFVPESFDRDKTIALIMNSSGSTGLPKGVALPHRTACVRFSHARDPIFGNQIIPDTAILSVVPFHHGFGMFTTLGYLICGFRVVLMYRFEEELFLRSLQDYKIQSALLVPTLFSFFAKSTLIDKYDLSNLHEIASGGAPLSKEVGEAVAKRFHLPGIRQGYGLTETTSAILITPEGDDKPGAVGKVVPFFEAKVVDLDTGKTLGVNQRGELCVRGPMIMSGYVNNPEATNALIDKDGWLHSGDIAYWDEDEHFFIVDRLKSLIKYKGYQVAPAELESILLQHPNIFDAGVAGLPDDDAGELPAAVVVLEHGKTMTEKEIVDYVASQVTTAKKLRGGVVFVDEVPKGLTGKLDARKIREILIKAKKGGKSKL

For `CCn1c(SCC(=O)N(C)c2c(N)n(Cc3ccccc3)c(=O)[nH]c2=O)nc2ccccc21`, which EC50 is on record?
The EC50 was > 112 µM (not active).

With `COc1ccc(NC(=O)c2cnn(-c3ccccc3)c2C)cc1` as the molecule, how does the EC50 read?
The EC50 was 16.6 µM (active).

With `COc1cc2c(cc1OC)-c1cc(Nc3cccc(C)c3)nc(=O)n1CC2` as the molecule, how does the EC50 read?
The EC50 was > 112 µM (not active).

With `COC(=O)c1ccc(NC(=O)C(=O)c2cccn2C)cc1` as the molecule, how does the EC50 read?
The EC50 was 1.74 µM (active).

For `CCOC(=O)C1CCN(C(c2ccccn2)c2c(C)[nH]c3ccccc23)CC1` (configuration not stated), which EC50 is on record?
Its EC50 is > 112 µM (not active).

With `COc1ccccc1NC(=O)c1cc2n(n1)C(C(F)(F)F)CC(c1ccc3c(c1)OCO3)N2` (configuration not stated) as the molecule, how does the EC50 read?
The EC50 was > 112 µM (not active).

With `CCCCOC(=O)c1ccc(OC(=O)N2CCOCC2)cc1` as the molecule, how does the EC50 read?
Its EC50 is > 112 µM (not active).

With `CCN1CCN(Cc2nc3c(c(=O)[nH]c(=O)n3C)n2Cc2ccccc2Cl)CC1` as the molecule, how does the EC50 read?
Its EC50 is > 112 µM (not active).

Which EC50 does the source give for `CCOC(=O)c1cc2cc(OC)ccc2nc1C` here?
Its EC50 is > 112 µM (not active).

For `O=C(Nc1ccc2c(c1)OCO2)Nc1ccccc1F`, which EC50 is on record?
The EC50 was 1.77 µM (active).

test system: not listed separately; assay: alpha-synuclein stem-loop luciferase translation blockers – H4 neuroglioma cells, luminescence, confirmation (AID 1988); format: functional, cell-based

Which EC50 does the source give for `COc1ccc(C(=O)NC(=O)Nc2cc(C)ccn2)cc1` here?
Its EC50 is 0.367 µM (active).

test system: not listed separately; assay: Trypanosoma cruzi growth suppression in host cells – NIH3T3 host cells, beta-gal luminescence, confirmation (AID 2044); format: functional, cell-based;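 note: intracellular parasites grown in NIH/3T3 mouse fibroblasts as host cells; luminescent beta-galactosidase reporter signal from transgenic T. cruzi replicating inside host cells; inhibitors lower the luminescence signal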

With `O=[N+]([O-])c1ccc(CN2CCN(c3ccc(Cl)cc3)CC2)o1` as the molecule, how does the EC50 read?
The EC50 was 0.758 µM (active).
